# Literature values, collected in patent publication US20210065841A1, “METHOD FOR DETERMINING ANDROGEN AND ANTI-ANDROGEN EFFECTS ON SUBSTANCES” (priority 2018, published 2021).
# Molecular target: T1, androgen receptor (Homo sapiens, UniProt P10275)
# T1 sequence (P10275 1-920): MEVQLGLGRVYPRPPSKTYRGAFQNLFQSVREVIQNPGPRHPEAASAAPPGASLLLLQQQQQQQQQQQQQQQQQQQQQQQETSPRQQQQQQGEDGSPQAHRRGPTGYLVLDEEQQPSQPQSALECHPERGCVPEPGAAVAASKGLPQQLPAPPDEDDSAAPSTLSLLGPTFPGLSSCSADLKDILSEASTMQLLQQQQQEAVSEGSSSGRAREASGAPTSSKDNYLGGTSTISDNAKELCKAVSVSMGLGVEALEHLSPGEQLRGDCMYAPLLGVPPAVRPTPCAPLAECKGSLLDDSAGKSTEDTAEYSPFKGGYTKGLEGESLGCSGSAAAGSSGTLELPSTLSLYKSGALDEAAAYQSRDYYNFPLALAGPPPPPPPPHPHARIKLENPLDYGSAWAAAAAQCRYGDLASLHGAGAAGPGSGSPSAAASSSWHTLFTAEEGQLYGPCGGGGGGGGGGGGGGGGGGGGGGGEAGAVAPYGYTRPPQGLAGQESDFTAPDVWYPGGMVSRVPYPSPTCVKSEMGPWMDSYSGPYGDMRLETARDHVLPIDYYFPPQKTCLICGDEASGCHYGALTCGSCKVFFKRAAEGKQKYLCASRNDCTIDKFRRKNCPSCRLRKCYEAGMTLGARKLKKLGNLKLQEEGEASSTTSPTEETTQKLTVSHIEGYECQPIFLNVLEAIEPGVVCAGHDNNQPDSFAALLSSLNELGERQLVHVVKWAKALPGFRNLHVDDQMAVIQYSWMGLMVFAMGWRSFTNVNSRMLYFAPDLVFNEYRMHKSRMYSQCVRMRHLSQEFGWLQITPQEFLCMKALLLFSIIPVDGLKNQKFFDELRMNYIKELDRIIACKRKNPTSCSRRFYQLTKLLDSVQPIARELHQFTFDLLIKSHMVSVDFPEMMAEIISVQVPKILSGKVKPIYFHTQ
# Details: previous reports
row,Compound,androgen receptor antagonistic properties
1,CCCCC(CC)COC(=O)c1cc(Br)c(Br)c(Br)c1Br (centres unmarked) [TBB],androgen receptor antagonistic properites
2,BrC1CCC(Br)C(Br)CCC1Br (centres unmarked) [TBCO],androgen receptor antagonistic properites
